We go through 1 compound from patent publication US20090202499A1, “Human Telomerase Reverse Transcriptase Peptides” (priority 2006, published 2009).

pIC50: −log10 of the molar value. “Also recorded” adds a separate entry of the source. Read-outs that look alike come from different tables or passages of the source. Bounds are passed on as bounds.

A word on the pIC50: it is the IC50 on a negative log10 scale, so that one unit is a factor of ten. High values mean a small IC50, low ones a large IC50. The term IC50 denotes the point on the concentration scale where inhibition reaches its midpoint.

Experiment [1] deals with B*0702 (Homo sapiens, UniProt P01889). Description: competition solid-phase radioimmunoassay on purified HLA molecule. The format is binding. On the procedure:
(§1) Supertype analysis. Quantitative assays to measure the binding affinity of peptides to purified HLA B7-supertype molecules (B*0702, B*3501, B*5101, B*5301, B*5401) and B*0801 were based on the inhibition of binding of a radiolabeled standard peptide, and were performed as previously described (22, 35). Briefly, 1-10 nM of radiolabeled peptide was co-incubated at room temperature with 1 microM to 1 nM of purified MHC in the presence of 1-3 μM human beta2-microglobulin (Scripps Laboratories, San Diego, Calif.) and a cocktail of protease inhibitors. After a two-day incubation, binding of the radiolabeled peptide to the corresponding MHC class I molecule was determined by capturing MHC/peptide complexes on Greiner Lumitrac 600 microplates (Greiner Bio-one, Longwood, Fla.) coated with the W6/32 antibody, and measuring bound counts per minute (cpm) using the TopCount microscintillation counter (Packard Instrument Co.). […] Under the conditions utilized, where [label]<[MHC] and IC50≧[MHC], the measured IC50 values are reasonable approximations of the true Kd values.
Next, we assessed the actual binding avidity for HLA-B7 (HLA-B*0702). Two independent assays were used: binding stabilization assay on T2-B7 cells by flow cytometry (12) and a competitive solid-phase radioimmunoassay on immobilized purified HLA-B7 molecule (35).

The target in experiment [2] is B*3501 (Homo sapiens, UniProt P01889, A329T/A93T/A95T/C349S/D201E/D98Y/E176V/E187L/E204Q/E69T/I218V/K202T/L119I/Q94N/R155S/R180L/S121R/S35A/S48A/T118I/V127L/V306I/V36M/Y140S/Y91F). Description: HLA-B7 supertype binding assay. On the procedure:
as §1
(§2) HLA molecules are highly polymorphic posing problems to the identification of peptides, which could be used to cover the totality of the human population. However, HLA alleles can be clustered into a relatively small number of groups termed supertypes (21). The HLA-B7 supertype includes ten alleles (22). Here, we decided to test the selected hTRT peptides for their ability to bind five out of ten members of the HLA-B7 supertype (B*3501, B*5101, B*5301, B*5401) and B*0801. The B*0801 allele shares binding features with B*0702, although is not officially part of the HLA-B7 supertype. This analysis had the purpose to further narrow the selection of putative HLA-B7 immunogens based on supertype binding (Table V).

Experiment [3] deals with B*5101 (Homo sapiens, UniProt P01889, A329T/A93T/A95T/C349S/D138N/D201E/D98Y/E187L/E204Q/E69T/G107R/I218V/K202T/L105A/L119W/N104I/Q94N/R106L/R155S/R180L/S101N/S121T/S35A/S48A/V306I/V36M/Y195H/Y91F). Description: HLA-B7 supertype binding assay. The procedure: as §1, §2
Experiment [4] addresses B*5301 (Homo sapiens, UniProt P01889, A329T/A93T/A95T/C349S/D201E/D98Y/E176V/E187L/E204Q/E69T/G107R/I218V/K202T/L105A/L119I/N104I/Q94N/R106L/R155S/R180L/S101N/S121R/S35A/S48A/T118I/V127L/V306I/V36M/Y140S/Y91F). In words: HLA-B7 supertype binding assay. On the procedure:
as §1, §2

In experiment [5] the target is B*5401 (Homo sapiens, UniProt P01889, A329T/C349S/D138N/D201E/E176V/E187T/E204Q/E69G/I76V/K202T/L119W/R155S/R180L/S121T/S35A/S48A/V127L/V306I/V36M/Y140L). In words: HLA-B7 supertype binding assay. The procedure: as §1, §2
The test system of experiment [6] is RMA-B7 cells pulsed with the homologous hTRT peptide. Description: peptide immunization of HLA-B7 Tg mice, 51Cr-release assay. The format is in vivo. As to conditions: 100 micrograms peptide + HBV helper peptide in IFA, s.c. On the procedure: FIG. 1. […] HLA-B7 Tg mice were vaccinated with 100 micrograms of individual hTRT peptide together with 120 micrograms of HBV helper peptide in IFA. Ten days after immunization, spleen lymphocytes were restimulated in vitro with peptide and fresh, irradiated syngeneic APC. Restimulations were performed on a weekly basis. A standard 4 hour ^51Cr-release assay was performed on day 5 after in vitro restimulation, using RMA-B7 cells pulsed with the homologous hTRT peptide as targets and an E:T ratio of 25:1. Results are expressed as the mean specific lysis plus or minus standard deviation of responder mice only, whose number is indicated in each panel. Tests were run in duplicate.
In vivo immunization procedures. Peptide immunization. HLA B7 transgenic mice (28) were injected s.c. at the base of the tail with 100 micro-grams of hTRT peptides along with 120 micro-grams of I-A^b MHC Class II helper peptide 128-140 of the hepatitis B virus core protein in incomplete Freunds' adjuvant as described previously (12). Long-term CTL lines were maintained in culture by weekly restimulation with irradiated, peptide-pulsed syngeneic spleen cells in RPMI-1640 medium containing 10% heat inactivated fetal bovine serum, 2 mM glutamine, 5×10^−5 M 2-Mercaptoethanol, 50 micro-grams/ml streptomycin, and 50 micro-grams/ml penicillin (complete medium) and supplemented with 40 IU/ml of recombinant human IL-2.
CTL assays. Both murine and human CTL were detected by the ^51Cr release assay performed as previously described (14). Briefly, HLA-B7^+ antigen presenting cells (RMA-B7 or T2-B7 cells) were labeled for 1 hr with 100 micro-Ci of Na2^51CrO4 (Perkin Elmer). Washed cells (5×10^3 per well) were mixed in 96-well plates in 100 micro-liters/well with each peptide (at 10 micro-grams/ml or lower concentration) and 100 micro-liters of the CTL effector cells (at various E:T ratio) in RPMI medium. The plates were incubated for 4-5 hrs at 37° C. (5% CO2). The supernatants were harvested and counted on a Wallac 1470 Wizard Gamma counter. The percent lysis was calculated as 100 (cpmexp−cpmspont)/(cpmmax−cpmspont).
In order to assign immunogenicity to each of the peptides and correlate this property with the binding characteristics and the scores of the predictive algorithms, we immunized HLA-B7 Tg mice (28). Ten to eleven days after immunization mice were sacrificed, the spleen harvested and splenocytes put in culture with LPS/Dextran activated APC, and tested in a 4 hour ^51Cr-release assay. As shown, only five out of seven peptides yielded a meaningful, specific CTL response even after a third cycle of in vitro restimulation (FIG. 1). All immunogenic peptides induced a response from the first in vitro restimulation and this response increased upon subsequent rounds of antigen restimulation. As noted the lysis of peptide-pulsed RMA-B7 target cells increased at each round of in vitro restimulation. No lysis occurred on RMA-B7 cells not pulsed with peptide. Thus, the in vivo results together with the actual measure of the avidity of HLA-B7 binding avidity distinguished two groups of 9mer hTRT peptides.

In experiment [7] the target is B*0801 (Homo sapiens, UniProt P01889, A93T/A95T/D138N/E176V/E187T/K202T/Q94N/R180D/S35A/V36M/Y33D/Y91F). In words: biochemical.

Turning to `CSCC[C@H](NC(=O)[C@H](CC(N)=O)NC(=O)[C@H](CCCNC(=N)N)NC(=O)CNC(=O)[C@H](C)N)C(=O)N[C@@H](CCCNC(=N)N)C(=O)N[C@@H](CCCNC(=N)N)C(=O)N[C@@H](CCCCN)C(=O)N[C@@H](CC(C)C)C(=O)O` [p966], the negative-log IC50 (pIC50) is less than 4.30 in experiment [1]; less than 4.30 in experiment [2]; less than 4.30 in experiment [3]; less than 4.30 in experiment [4]; 4.47 in experiment [5]; less than 4.30 in experiment [7]. Moreover, in experiment [1] (read-out: HLA class I binding capacity (IC50 nM) B*0702, Table V, purified MHC, radiolabeled standard peptide), the IC50 was greater than 50000 nM. Also, the “immunogenicity in vivo, CTL response after peptide immunization (in words)” value in experiment [6] is on record as “non-immunogenic; also recorded: poor immunogenicity; also recorded: repeated negative results”.
